Data on four compounds can be found in publication PMC6054636, “Interaction between porous silica gel microcarriers and peptides for oral administration of functional peptides” (Scientific Reports, 2018).

For data set [1] the following is noted: amino acid hydrophobicity index; cited from earlier work. The text has this: Rimola et al. reported a review paper on the effect of silica surface features on the adsorption of biomolecules, such as polypeptides. […] This tendency was also obtained in our experiments as described in Fig. 2C. […] All 5 ...
The target of a further data set is T1, pepsin (Sus scrofa, UniProt P00791).
T1 construct: purchased WAKO, Japan 161–24482
As to the kind of experiment: Peptide digestive enzyme stability experiment (SGF with pepsin). The data set is classed as in vitro ADME. Particulars: SGF pH 1.2 with pepsin (0.32 g/100 mL), 60 min, 37 °C, RP-HPLC UV, no addition of pepsin = 100%. As to the method: Finally, we investigated whether the heat-treated silica gel used in this study protected the peptides that were adsorbed to them from pepsin degradation. We used DFELEDD with a high score value (Fig. 3D). The peptide was adsorbed to the heat-treated silica gel, incubated for 60 min in simulated gastric fluid containing pepsin, and then transferred to the pH 7.4 buffer that mimics the intestinal environment. […] In contrast, the degradation of the peptide was inhibited under the condition with silica gel and 57.1 ± 3.9% of the peptide was released. This occurred because the peptide was adsorbed to the pore surface of the heat-treated silica gel. Schlipf et al. reported EGFP (2.4 nm diameter × 4.2 nm) protection from proteolytic attack by Pepsin A (7.3 nm × 3.6 nm × 5.4 nm) by the mesoporous silica with 7.3 nm pores. […]
SGF (simulated gastric fluid) has been reported previously. […] To quantify the peptide, 250 μL of solution was injected into the HPLC.
Chromatographic analysis was performed with a HPLC system (JASCO, Japan) equipped with pump (model PU 2086 Plus), UV detector (model MD 4017), and a C18 column (d = 20 mm, L = 250 mm; SHISEIDO, Japan). […] The column was maintained at 30 °C, the flow rate was 5 mL/min, and the eluted peaks were detected by UV absorbance of 220 and 280 nm.

Where no end group is shown, it is not given here.

T1 sequence (P00791 60-385): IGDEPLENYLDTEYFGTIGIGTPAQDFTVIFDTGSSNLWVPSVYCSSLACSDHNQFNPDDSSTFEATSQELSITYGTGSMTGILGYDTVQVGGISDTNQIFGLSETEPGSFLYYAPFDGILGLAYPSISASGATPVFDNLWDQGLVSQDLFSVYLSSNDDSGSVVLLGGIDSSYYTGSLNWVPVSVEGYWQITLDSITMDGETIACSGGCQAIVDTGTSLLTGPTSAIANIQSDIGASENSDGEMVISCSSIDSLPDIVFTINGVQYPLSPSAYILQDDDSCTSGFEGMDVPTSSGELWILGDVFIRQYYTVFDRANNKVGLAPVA

As to `N[C@@H](Cc1ccccc1)C(=O)O` [F, Phe], the “Hydrophobicity of amino acid” value in data set [1] is 2.8.

`CC[C@H](C)[C@H](N)C(=O)O` [I]: the “Hydrophobicity of amino acid” value in data set [1] is 4.5.

With `CC(C)[C@H](N)C(=O)O` [V], the “Hydrophobicity of amino acid” value in data set [1] was 4.2.

DFELEDD [DFELEDD]: the “Peptide release rate (protection) after pepsin degradation, with heat-treated silica gel” value on pepsin (0.5 mM peptide mixed with 25 mg/mL heat-treated silica gel, precipitate released in 300 μL PBS pH 7.4, mean ± SD) worked out at 57.1 ± 3.9%. In addition, the “Peptide release rate after pepsin degradation, without silica gel” value on pepsin (no silica gel, 0.5 mM peptide, then pH 7.4 PBS) is below 1.0%.
